Series [1] deals with human erythrocytes. The settings on record: cited from earlier work. From the text:
(§1) Alyteserin-1c is an AMP comprising a 23 amino acid residue (net charge: +2) and was first isolated from norepinephrine-stimulated skin secretions from the midwife toad Alytes obstetricans. […] Although AMPs are an alternative means for eliminating bacteria in foods, due to their biocompatibility, biodegradability, broad spectrum of activity and potent bactericidal properties, most ...

For series [2], the system named is E. coli. The settings on record: cited from earlier work.
Excerpt: as §1

The nature of series [3]: Surface tension (pendant drop) and aggregation index (dual-angle DLS) of peptides in aqueous media. The format is physicochemical. The settings on record: PBS pH 7.2, 138 mM NaCl; peptide 0–50 µM; pendant drop and dual-angle DLS (173° and 13°); triplicate. Here is the method: Surface tension measurements of the peptides were carried out using a contact angle meter (OCA15EC Dataphysics Instruments, Filderstadt, Germany) with a software driver (version 4.5.14 SCA22), where the data capture was recorded using an IDS video camera. For this, the pendant-drop method was performed in triplicate, where peptide concentrations between 0 and 50 µM were prepared with ultrapure water and phosphate buffer saline pH 7.2 (PBS, 138 mM NaCl, 3 mM KCl, 1.5 mM NaH2PO4, 8.1 mM Na2HPO4). The samples of peptides +2 and +5 were prepared in serial concentrations between 0 and 50 µM in PBS buffer pH 7.2 at 138 mM of ionic strength. An aliquot was analysed immediately after preparation. Dual angle DLS measurements (173° and 13°) of automatic duration were carried out using a Zetasizer Nano ZSP (Malvern Instruments, Worcestershire, United Kingdom). The Aggregation Index is a parameter based on the mean z-average size measured for the two angles of scattering according to the equation: (1) Aggregation index=[Zfwd/Zbkd−1] where, Zfwd is the average particle size detected by forward scatter optics at 13°. Trace amounts of aggregate are often highly useful for the enhanced detection of large protein aggregates, whereas Zbkd is the particle size average at a detection angle of 173° (non-invasive back-scatter).

Series [4] concerns L. monocytogenes ATCCbaa751. The class given is cell-based, Listeria monocytogenes. From the text: (§2) L. monocytogenes ATCCbaa751 and E. coli ATCC25922, were obtained from the American Type Culture Collection (ATCC; Rockville, MD, USA). NovaPEG Rink Amida resin, Fmoc-protected amino acids, 2-(1H-benzotriazole-1-yl)-1,1,3,3-tetramethyluronium tetrafluoro-borate (TBTU), Piperidine, N,N-Diisopropylethylamine (DIEA), Ninhydrin, Dimethylformamide (DMF), Trifluoroacetic acid (TFA), 1,2-Ethanedithiol (EDT), Triisopropylsilane (TIS) and Mueller Hinton Broth (MHB) were purchased in Merck (Darmstadt, Germany). Cholesterol, Epikuron 200® and dioleoyl-phosphatidyl-ethanolamine (DOPE) were obtained from Avanti Polar Lipids (Alabaster, Alabama, USA). Eudragit® E-100 was purchased in Evonik (Darmstadt, Germany). Ampicillin (Fersinsa Gb) was supplied by Tecnoquímicas S.A. (Cali, Colombia) and Gentamicin solution (GENFAR®, Cali, Colombia) was purchased from a local pharmacy. The datasets used and materials using during this study are available from the corresponding author on reasonable request.
(§3) Microbial susceptibility tests were performed according to clinical and laboratory standards institute (CLSI) standard methods. Bacteria were inoculated in MHB and incubated overnight at 37 °C. […] After incubation, the minimum inhibitory concentration (MIC) was determined by visual analysis.

The subject of series [5] is E. coli ATCC25922. The class given is cell-based, Escherichia coli.
Excerpt: as §2, §3

Where no end group is shown, it is not given here.

The MIC is the least concentration at which growth counts as inhibited.

As for “GLKEIFKAGLGSLVKGIAAHVAS [peptide +2, Alyteserin-1c]”, the hemolytic activity result in series [1] is recorded as “low hemolytic activity”. For the same sequence, the minimum inhibitory concentration (MIC) in series [2] is 25 µM; in series [4] it was 125 µM; in series [5], 15.2 µM. Moreover, in series [3], the “concentration at which changes in surface tension and aggregation index are achieved” value is reported as 20 µM.
Take GLKRIFKSGLGKLVKGISAHVAS [peptide +5]: the “concentration at which changes in surface tension and aggregation index are achieved” value in series [3] was in the range of 5 to 10 µM. Further, the MIC in series [4] and in series [5] was 62.5 µM in each case.

(Values after publication PMC6386929, “Evaluation of the Antimicrobial Activity of Cationic Peptides Loaded in Surface-Modified Nanoliposomes against Foodborne Bacteria” (International Journal of Molecular Sciences, 2019).)
